Laboratory results published in patent US9943540B2, “Pharmaceutical formulation for the treatment of osteoarthritis containing clodronic acid and hyaluronic acid” (ABIOGEN PHARMA S.P.A., priority 2005, dated 2018).
“Also recorded” adds a separate entry of the source.

Experiments:
[1] = tested on: gonarthritis; assay: Preliminary clinical trial of intra-articular infiltration, responders by Womac 20 and Womac 50; type: in vivo, patients; settings: for Womac 20 (responders, 20% improvement in the symptoms) / Womac 50 (responders, 50% improvement in the symptoms): patients with gonarthritis, % of patients
Method: Preliminary clinical trials with the formulations according to the invention were based on the measurement of Womac 20 and Womac 50, ie. a 20% and 50% improvement in the symptoms to establish the responders to the treatment (Ann Rheum Dis. 2005). Recently, to assess the effectiveness of intra-articular clodronic acid, 1 mg of clodronic acid is administered in patients with gonarthritis obtaining an improvement in symptoms which, when evaluated with Womac 50, related to 32% of the patients. 15 patients suffering from gonarthritis received, according to the invention, an infiltration of 2 ml of solution constituted by 20 mg of hyaluronic acid (Hyalgan) together with 1 mg of clodronic acid once a week for 3 weeks. At the end of the infiltration cycle, as reassumed in the following table, 58% of the patients were responders according to Womac 20, and 37% were responders according to Womac 50. […] The final result of 3 weekly infiltrations of the combination of the two drugs was also better than the cycle with 5 weekly infiltrations of hyaluronic acid (Womac 20:51% and Womac 50:30%) or clodronic acid (Womac 20:54% and Womac 50:32%).

[2] = tested on: synovitis secondary to knee osteoarthritis; settings: patients with synovitis secondary to knee osteoarthritis; cited from earlier work
[3] = tested on: gonarthritis; assay: Clinical trial of intra-articular sodium clodronate in evident gonarthritis; type: in vivo, patients
From the text: (§1) The low pH used was dictated by stability problems, +which made less acid values of the solutions unacceptable.

[4] = tested on: damaging effects on the joint structures by Freund's adjuvant; assay: Study on rats: damage to joint structures by Freund's adjuvant; type: in vivo
[5] = tested on: gonalgia and gonarthrosis; assay: Multicenter clinical study of intra-articular clodronate; type: in vivo, patients; settings: 2 mg once a week over 4 consecutive weeks
From the text: as §1

[6] = 2 ml intra-articular infiltration once a week for 3 weeks
[7] = 2 ml intra-articular infiltration once a week for 5 weeks

## O=P(O)(O)C(Cl)(Cl)P(=O)(O)O [Clodronic acid, clodronic acid]
[1]; 1 mg clodronic acid intra-articular in patients with gonarthritis, regimen not stated, % of the patients
  improvement in symptoms evaluated with Womac 50: 32%
[1]; [6]
  Womac 20 (responders, 20% improvement in the symptoms): 43%
  Womac 50 (responders, 50% improvement in the symptoms): 27%
[1]; [7]
  Womac 20 (responders, 20% improvement in the symptoms): 54%
  Womac 50 (responders, 50% improvement in the symptoms): 32%

## O=P(O)(O)C(Cl)(Cl)P(=O)(O)O [sodium clodronate]
[2]
  patient's symptomatology: significant improvement
[3]; after 5 intra-articular injections of 2 mg
  attenuation of pain and recovery of joint movement: interesting results were observed
[3]; clodronate alone intra-articularly, acidic solution, observed in the trials of b9 and b10
  adverse events: pain response at the time of the injection: some adverse events were also observed; also recorded: normally occurs
[4]
  inhibition of damaging effects on the joint structures by Freund's adjuvant: able to inhibit damaging effects on the joint structures
[5]
  response to intra-articular administration: best responses

## sodium hyaluronate
[1]; [6]
  Womac 20 (responders, 20% improvement in the symptoms): 41%
  Womac 50 (responders, 50% improvement in the symptoms): 24%
[1]; [7]
  Womac 20 (responders, 20% improvement in the symptoms): 51%
  Womac 50 (responders, 50% improvement in the symptoms): 30%
